Read-outs that look alike come from different tables or passages of the source. Ends that are not written are not given here.
Legend:
HUVEC [1] = test: HUVEC migration assay (RT-CIM); format: cell-based, human; settings: Yes/No summary, active = inhibitory potential greater than 30%
Outline: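 Real-time impedance (RT-CIM) transwell migration through fibronectin-coated (20 μg/mL) 8 μm membranes; 45,000 cells/well in serum-free medium ± peptides, fully supplemented EBM-2 as chemoattractant below. Cell index recorded over 20 h at 37 °C; ≥2 independent replicates, each in duplicate.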

[2] = tested on: VEGF mediated retinal neovascularization; test: Rho/VEGF transgenic mice model of retinal neovascularization; format: in vivo; settings: for area of retinal neovascularization in the Rho/VEGF model: 0.1 μg into a mouse eye
Experimental: The ocular Rho/VEGF transgenic mice model of wet age-related macular degeneration also was used to test some of the peptides. Transgenic mice in which the rhodopsin promoter drives expression of VEGF in photoreceptors have the onset of VEGF production at P7 and develop extensive NV along the outer surface of the retina by P21 (Okamoto et al., 1997; To be et al., 1998). Mice hemizygous for the transgene (n=15 for each dose) were given an intraocular injection of 1 μl of PBS containing 0.01, 0.1, or 1 μg of peptide or scramble peptide in one eye at P7 and P14 and at P21 the mice were anesthetized, perfused with fluorescein-labeled dextran, and the total area of neovascularization on the outer surface of the retina was measured on retinal flat mounts by image analysis as above.

HUVEC [3] = format: cell-based, human; settings: for IC50: 3 h; for Activity in Adhesion: HUVEC, Yes/No summary, active = inhibitory potential greater than 30%
Outline: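 Adhesion of 25,000 cells per well, with or without peptide, followed by real-time electrical impedance on electrode plates over 3 hours. At least two independent replicates, each run in duplicate.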

HUVEC [4] = test: HUVEC tube formation assay on Matrigel; format: cell-based, human; settings: Yes/No summary
Outline: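 HUVEC (15,000/well) plated on polymerized Matrigel in complete media with or without peptide for 19 h at 37 °C. Tube networks imaged by microscopy, one random field per well, in triplicate wells across at least two independent experiments.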

HUVEC [5] = format: cell-based, human; settings: for Activity in Proliferation: Yes/No summary
Outline: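 HUVEC plated at 2000 cells/well overnight, then exposed to peptides in fully supplemented medium for three days. WST-1 added in serum-free EBM-2 for four hours and absorbance read at 450 nm. Percent live cells taken relative to untreated cells in complete medium with 0.2% DMSO.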

[6] = tested on: choroidal neovascularization; test: Laser-induced choroidal neovascularization model; format: in vivo, C57BL/6 mice; settings: 0.1 μg into a mouse eye
Experimental: The ocular laser-induced choroidal neovascularization (NV) model of wet age-related macular degeneration was used for testing. 5-6-week-old female pathogen-free C57BL/6 mice were anesthetized with ketamine hydrochloride (100 mg/kg body weight) and pupils were dilated. Laser photocoagulation (75-μm spot size, 0.1-sec duration, 120 mW) was performed in the 9, 12, and 3 o'clock positions of the posterior pole of each eye with the slit lamp delivery system of an OcuLight GL diode laser (Iridex, Mountain View, Calif.) and a handheld cover slip as a contact lens to view the retina. Production of a tissue bubble by the laser, which indicates rupture of Bruch's membrane, is an important factor in obtaining choroidal NV; therefore, only burns in which a bubble is produced are included in the study. […] At day 7 the mice that received the naked peptides were dosed again whereas the mice that received the particles were administered PBS. Intravitreous injections were done under a dissecting microscope with a Harvard Pump Microinjection System and pulled glass micropipettes. After 14 days, the mice were perfused with 1 mL of PBS containing 50 mg/mL of fluorescein-labeled dextran (2×10^6 Daltons average molecular weight; Sigma-Aldrich, St. Louis, Mo.) and choroidal flat mounts were examined by fluorescence microscopy. Images were captured with a Nikon Digital Still Camera DXM1200 (Nikon Instruments Inc., New York, N.Y.). Image analysis software (Image-Pro Plus; Media Cybernetics, Silver Spring, Md.) was used to measure the total area of choroidal NV at each rupture site with the investigator masked with respect to treatment group.

Molecule	Activity in Migration (HUVEC [1])	area of retinal neovascularization in the Rho/VEGF model [2]	IC50 (HUVEC [3]) [µM]	Activity in Adhesion (HUVEC [3])	Activity in Tube formation (HUVEC [4])	inhibition of proliferation (HUVEC [5]; HUVEC)	Activity in Proliferation (HUVEC [5]; HUVEC)	IC50 (HUVEC [5]; HUVEC, tables 5, 8-10 and text, read-out: IC50 ± 95% CI (μM), proliferation) [µM]	laser-induced choroidal neovascularization [6]	inhibition of VEGF mediated angiogenesis ([2]; 0.1 μg administered directly into the eye)	IC50 (HUVEC [5]) [µM]	loss of activity in proliferation compared to substitution of Methionine at position 10 (HUVEC [5]; HUVEC) [fold]
CC[C@H](C)[C@H](NC(=O)[C@H](CC(N)=O)NC(=O)[C@@H](NC(=O)[C@H](Cc1ccccc1)NC(=O)[C@@H](C)NC(=O)[C@H](Cc1ccccc1)NC(=O)[C@@H]1CCCN1C(=O)[C@H](CCSC)NC(=O)[C@@H](NC(=O)[C@H](CO)NC(=O)[C@H](Cc1ccccc1)NC(=O)[C@H](CCCNC(=N)N)NC(=O)[C@H](CCCNC(=N)N)NC(=O)[C@@H](N)CC(C)C)[C@@H](C)O)[C@@H](C)CC)C(=O)N[C@@H](CC(N)=O)C(=O)N[C@@H](CC(N)=O)C(=O)N[C@H](C(=O)N[C@H](C(=O)N[C@@H](CC(N)=O)C(=O)N[C@@H](Cc1ccccc1)C(N)=O)[C@@H](C)CC)C(C)C [SP2034, LRRFSTMPFdAFININNVINF]	Yes	inhibited	0.55 ± 0.37	Yes	Yes	improved by two orders of magnitude	Yes	0.54 ± 0.19	inhibited laser-induced choroidal neovascularization	–	–	–
CC[C@H](C)[C@H](NC(=O)[C@H](CC(N)=O)NC(=O)[C@@H](NC(=O)[C@H](Cc1ccccc1)NC(=O)[C@H](C)NC(=O)[C@H](Cc1ccccc1)NC(=O)[C@@H]1CCCN1C(=O)[C@H](CCSC)NC(=O)[C@@H](NC(=O)[C@H](CO)NC(=O)[C@H](Cc1ccccc1)NC(=O)[C@H](CCCNC(=N)N)NC(=O)[C@H](CCCNC(=N)N)NC(=O)[C@@H](N)CC(C)C)[C@@H](C)O)[C@@H](C)CC)C(=O)N[C@@H](CC(N)=O)C(=O)N[C@@H](CC(N)=O)C(=O)N[C@H](C(=O)N[C@H](C(=O)N[C@@H](CC(N)=O)C(=O)N[C@@H](Cc1ccccc1)C(N)=O)[C@@H](C)CC)C(C)C [SP2035]	Yes	inhibited	2.51 ± 0.88	Yes	Yes	–	Yes	–	inhibited laser-induced choroidal neovascularization	–	–	–
LRRFSTAPFAFININNVINF-NH2 [SP2036]	Yes	inhibited	2.75 ± 1.22	Yes	Yes	–	Yes	–	inhibited laser-induced choroidal neovascularization	about 70%	9.97 ± 8.3	10
